Data as given in patent US4939133A, “N-substituted-2-hydroxy-α-oxo-benzeneacetamides and pharmaceutical compositions having activity as modulators of the arachidonic acid cascade” (Warner-Lambert Company, priority 1985, dated 1990).

Target: T1, 5-lipoxygenase (isolated human leukocytes) (Homo sapiens, UniProt P09917)
T1 construct: 5-Lipoxygenase Assay Using Isolated Human Leukocytes (5LOA2); endogenous in cells; host or cells: isolated human blood leukocytes, platelets removed
T1 sequence (P09917 1-674): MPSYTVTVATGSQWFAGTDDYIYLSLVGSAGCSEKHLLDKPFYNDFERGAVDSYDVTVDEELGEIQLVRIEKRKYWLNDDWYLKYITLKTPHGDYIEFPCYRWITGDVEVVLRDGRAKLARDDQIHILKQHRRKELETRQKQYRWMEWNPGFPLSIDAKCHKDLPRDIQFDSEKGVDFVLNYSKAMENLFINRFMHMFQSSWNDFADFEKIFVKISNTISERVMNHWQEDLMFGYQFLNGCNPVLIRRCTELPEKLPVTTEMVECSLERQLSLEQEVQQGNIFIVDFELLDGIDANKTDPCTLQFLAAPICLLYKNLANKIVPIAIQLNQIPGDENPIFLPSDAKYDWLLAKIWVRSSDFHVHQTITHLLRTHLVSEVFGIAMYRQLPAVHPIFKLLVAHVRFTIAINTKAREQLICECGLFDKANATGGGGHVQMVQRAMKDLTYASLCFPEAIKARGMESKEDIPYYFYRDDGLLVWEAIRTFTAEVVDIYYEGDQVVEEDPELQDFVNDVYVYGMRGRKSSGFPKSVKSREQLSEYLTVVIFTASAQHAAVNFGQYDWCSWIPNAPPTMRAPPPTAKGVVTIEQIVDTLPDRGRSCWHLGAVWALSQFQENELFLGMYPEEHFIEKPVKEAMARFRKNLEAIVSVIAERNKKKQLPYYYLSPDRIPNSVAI
Test: 5-Lipoxygenase Assay Using Isolated Human Leukocytes (5LOA2)
Type: cell-based
Procedure: 5-Lipoxygenase Assay Using Isolated Human Leukocytes (5LOA2)
The formation of 5-HETE in human leukocytes is considered a measure of 5-lipoxygenase activity. The protocol is described in the following.
Fresh heparinized or EDTA treated human blood is mixed with 6% dextran-3% dextrose in isotonic saline in the ratio 0.25 ml dextran solution per 1.0 ml blood. After mixing the blood is allowed to sit at room temperature for about 90 minutes while the RBC's settle. During this period, the plasma is removed with a plastic pipette to nalgens tubes.
The plasma is centrifuged at 800 rpm ([…]) on the Beckman Td-b refrigerated centrifuge to remove the platelets (which remain in the supernatant). The pellet, consisting of leukocytes and erythrocytes, is treated with 10 ml 0.87% ammonium chloride at room temperature for four minutes, lysing the red cells. At the end of four minutes the cells are diluted with a 2×volume of phosphate buffered saline, pH 7.4, and centrifuged for ten minutes. The cells are washed three times with the phosphate buffered saline. Any of the pelleted cell matter which is not easily resuspended is discarded during the washings --the material contains platelets (12-lipoxygenase activity).
After washing, the cells are resuspended in phosphate buffered saline containing 1.0 mM calcium and 0.5 mM magnesium. After counting the cells are diluted to 1.5-2.0×10^7 leukocytes per milliliter.
To each polypropylene reaction tube is added 0.48 ml leukocytes in Ca-Mg phosphate buffered saline, pH 7.4; 1-5 μl test compound dissolved in DMSO and buffer; or DMSO for control tubes.
The tubes preincubate at 37° C. for five minutes. […]
A portion of the ethanol solution is injected into the HPLC system for 5-HETE quantitation.
The HPLC system consists of Hewlett-Packard 1040A UV spectrophotometry system with an HP85 computer. […] Peaks are measured with a Hewlett Packard 3360A integrator. […] The flow is monitored at 235 nm for 5-HETE quatitation. […]

O=C(Nc1ccc(CCc2ccc(Cl)c(Cl)c2)cc1)c1ccccc1O [Example 42]
% Inhibition (5LOA2) (5LOA2, 2.00 E -5 M): 30.9% | % Inhibition (5LOA2) (5LOA2, 5.00 E -6 M): 21.1%
